This note sets out measurements from patent US9988268B2, “Preparation of 2,6- and 2,7-disubstituted anthraquinone derivatives” (BASF SE, priority 2014, dated 2018).

Values after ≈ are worked out from the molar mass of the structure shown. Like-named read-outs stand apart in the source and are kept apart here.

The series in a line: Determination of the solubility of anthraquinone derivatives in xylene/diisobutylcarbinol. Particulars: for solubility: mixture of xylene (50 volume-%) and diisobutylcarbinol (50 volume-%), 22° C.; for Solubility (in words): xylene/diisobutylcarbinol solvent system, comparison of anthraquinone derivatives. Format: physicochemical. The protocol: 0.06 ml of a mixture of xylene (50 volume-%) and diisobutylcarbinol (50 volume-%) were added to 1 g of the respective anthraquinone derivative at 22° C. every 60 seconds until the anthraquinone derivative was dissolved completely.

With `Cc1cc2c(cc1C)C(=O)c1cc(C)c(C)cc1C2=O` [Comparative Example 6, 2,3,6,7-tetramethylanthracene-9,10-dione], the solubility (usually the dissolved amount per volume that the medium holds) is “insoluble” and the “Solubility (in words)” value was “insoluble”.
Regarding `CCc1ccc2c(c1)C(=O)c1ccccc1C2=O` [2-ethylanthraquinone], the “Solubility (in words)” value is given as “poorly soluble”. In addition, the solubility (xylene/diisobutylcarbinol mixture (50:50 by volume), organic solvent or mixture, thermodynamic from solid, read-out: Solubility) amounted to 270 mM (≈ 63.8 mg/mL).
